Source: patent publication US9249118B2, “Purifying crude furan 2,5-dicarboxylic acid by hydrogenation” (Eastman Chemical Company, priority 2012, dated 2016)

Experiment: solubility of FDCA in water at different temperatures (FIG. 1)
Format: physicochemical
Settings: ambient pressure, as the water temperature increases beyond 130° C. (FIG. 1)
Experimental: FIG. 1 depicts the solubility of FDCA in water at different temperatures.
Suitable dissolution temperatures are those effective to dissolve the desired amount of FDCA solids into solution. The hydrogenation solvent composition may be added at (by pre-heating) or heated in the dissolution zone to a temperature of at least 120° C. under a pressure and time sufficient to allow for at least 80 wt. % dissolution, although to reduce the time required for dissolution, it is desirable that the hydrogenation solvent composition temperature is at least 130° C., or at least 135° C., or at least 140° C., or at least 150° C.

O=C(O)c1ccc(C(=O)O)o1 [FDCA, Furan 2,5-dicarboxylic acid]
solubility of FDCA in water: increases dramatically
